Data on four compounds can be found in patent publication US12172965B2, “Drug conjugate comprising quinoline derivatives” (UNIVERSITE PARIS-SACLAY, priority 2018, dated 2024).

pIC50: −log10 of the molar value. Where two headings read alike, the source gives them in different places.

One assay deals with NCI-N87 (gastric tumour). Put plainly: Antiproliferative activity (IC50), CellTiter Glo, NCI-N87. The assay is classed as cell-based. As to conditions: Homo sapiens, NCI-N87; free, unconjugated; 72 hours of treatment; read-out: NIC-N87 IC50. An excerpt:
(§1) The IC50 (as per accepted terminology) activities of the compounds according to the invention 4-((3-amino-4-methoxyphenyl)(methyl)amino) quinoline-2-carbonitrile (ICQN-1); 5-(5-((2-cyanoquinolin-4-yl)(methyl)amino)-2-methoxyphenyl)-N-hydroxypent-4-ynamide (ICQN-2); and (E)-3-(5-((2-cyanoquinolin-4-yl)(methyl)amino)-2-methoxyphenyl)-N-hydroxyacrylamide (ICQN-3) were compared with compounds of the prior art and with a commercial and clinical reference compound, in particular MMAE (monomethylauristatin E). The IC50 activities were measured on various different cancer cell lines HCT116 (colorectal tumour), A549 (non-small cell lung cancer), NCI-N87 (gastric tumour), Mia-Paca-2 (pancreatic tumour), K562R (chronic myeloid leukemia), SKOV3 (ovarian tumour), SKBr3 (breast tumour, Her2 overexpression), MCF7 (breast tumour) and MDA-MB231 (breast tumour).
(§2) The cancer cell lines were obtained from the American Culture Collection (ATCC, Rockville, MD) or from the German collection of microorganisms and cell cultures of the Leibniz Institute (DSMZ, Braunschweig-Germany) or from the European collection of cell cultures (ECACC, England). The cancer cell lines were cultured according to the supplier's instructions.
(§3) The A549 lung carcinoma cells, K562R myeloid leukemia cells, and the NCI-N87 gastric carcinoma cells were cultured in Gibco Roswell Park Memorial Institute (RPMI) 1640 medium supplemented with 10% foetal calf serum (FCS) and 1% glutamine. The Mia-Paca2 carcinoma cells were cultured in Gibco Dulbecco's Modified Eagle Medium (DMEM) supplemented with 10% foetal calf serum (FCS) and 1% glutamine.
(§4) The cells were counted using a Vi-cell XR (Beckman Coulter) and the cell viability was assessed by using 0.25% trypan blue dye exclusion assay. The cells were tested for the presence of mycoplasmas prior to the experiments with the Mycoplasma PCR detection kit (Applied Biological Materials Inc., Canada) according to the manufacturer's instructions, and only mycoplasma-free cells were used for the study. The cell lines were maintained at 37° C. in a humidified atmosphere containing 5% CO2.
(§5) After 24 hours of culturing, the cells were treated with the tested compounds at 10 different final concentrations. Each concentration was obtained from serial dilutions in culture medium starting from the stock solution. The control cells were treated with the carrier. The experiments were carried out in triplicate.
(§6) The measurements were performed after 72 hours of treatment using the CellTiter Glo assay (Promega) which makes it possible to measure through bioluminescence (quantification of adenosine triphosphate—ATP) the number of living cells, by using a PolarStar Omega microplate reader (BMG-Labtech).
(§7) The dose-response curves were plotted with the Graph Prism software application and the IC50 values were calculated using the Graph Prism software based on polynomial curves (four or five parameter logistic equations).
A general note: Cellular ATP, detected with luciferase, serves as a proxy for viable cell number.

For assay [1], the system named is Mia-Paca-2 (pancreatic tumour). Put plainly: Antiproliferative activity (IC50), CellTiter Glo, Mia-Paca-2. The assay is classed as cell-based. As to conditions: Homo sapiens, MIA PaCa-2; free, unconjugated; 72 hours of treatment; read-out: Mia-Paca-2 IC50.
Source text: as §1, §2, §3, §4, §5, §6, §7

The test system of assay [2] is K562R (chronic myeloid leukemia). Put plainly: Antiproliferative activity (IC50), CellTiter Glo, K562R. The assay is classed as cell-based. As to conditions: for pIC50: Homo sapiens, K-562R.
Source text: as §1, §2, §3, §4, §5, §6, §7
The K562R (chronic myeloid leukemia) cells have an MDR profile that allows them to be resistant to several chemotherapeutic compounds including the reference compound MMAE.

A further assay relates to SKOV3 (ovarian tumour). Put plainly: Antiproliferative activity (IC50), CellTiter Glo, SKOV3. In kind it is cell-based, human. As to conditions: Homo sapiens, SK-OV-3; free, unconjugated; 72 hours of treatment; read-out: SKOV3 IC50.
Source text: as §1, §2
(§8) The HCT-116 human colorectal carcinoma, SK-BR3 breast carcinoma, and SK-OV-3 ovarian carcinoma cells were cultured in Gibco McCoy's 5A medium supplemented with 10% foetal calf serum (FCS) and 1% glutamine.
as §4, §5, §6, §7

Assay [3] has as its system SKBr3 (breast tumour, Her2 overexpression). Put plainly: Antiproliferative activity (IC50), CellTiter Glo, SKBr3. The assay is classed as cell-based, human. As to conditions: Homo sapiens, SK-BR-3; free, unconjugated; 72 hours of treatment; read-out: SKBr3 IC50.
Source text: as §1, §2, §8, §4, §5, §6, §7

For another assay, the system named is MCF7 (breast tumour). Put plainly: Antiproliferative activity (IC50), CellTiter Glo, MCF7. As to conditions: Homo sapiens, MCF7; free, unconjugated; 72 hours of treatment; read-out: MCF7 CI50. The assay is classed as cell-based.
Source text: as §1, §2
(§9) The breast adenocarcinoma cells MDA-MB231 and MCF7 were cultured in Gibco RPMI 1640 culture medium supplemented with 10% foetal calf serum (FCS) and 1% glutamine.
as §4, §5, §6, §7

Assay [4] relates to MDA-MB231 (breast tumour). Put plainly: Antiproliferative activity (IC50), CellTiter Glo, MDA-MB231. The assay is classed as cell-based. As to conditions: Homo sapiens, MDA-MB-231; free, unconjugated; 72 hours of treatment; read-out: MDA-MB231 CI50.
Source text: as §1, §2, §9, §4, §5, §6, §7

The test system of another assay is cell line HCT116. As to conditions: molecules 4f/4j and 4g/4k of Alami et al. J. Med. Chem. 2019; cited from earlier work.

Regarding `COc1ccc(N(C)c2cc(C#N)nc3ccccc23)cc1/C=C/C(=O)NO` [ICQN-3, (E)-3-(5-((2-cyanoquinolin-4-yl)(methyl)amino)-2-methoxyphenyl)-N-hydroxyacrylamide], the pIC50 with NCI-N87 (gastric tumour) is 10.00; in assay [1], 9.03; in assay [2] (free, unconjugated, 72 hours of treatment, read-out: K562R IC50) it was 9.25; with SKOV3 (ovarian tumour) it was 8.58; in assay [3] it was 8.75; with MCF7 (breast tumour), 9.11. Also, in assay [4], the pIC50 was 9.36.

With `C=C(c1ccc2c(c1)c1ccccc1n2C)c1cc(C)nc2ccccc12`, the pIC50 in the assay on cell line HCT116 was 8.70.

In the case of `C=C(c1ccc2c(c1)c1ccccc1n2C)c1cc(C#N)nc2ccccc12`, in the assay on cell line HCT116, the pIC50 is 7.92.

Consider `C=C(c1ccc(OC)c(N)c1)c1cc(C)nc2ccccc12` [ICQO-1, reference compound], for which the pIC50 in assay [2] (resistant cancer cells, MDR profile, read-out: K562R (PgP+) IC50) was 8.70. In assay [2] (resistant cancer cells, MDR profile), the “Ratio vs MMAE, K562R (PgP+)” value worked out at 17.
